Data on 13 molecules can be found in US20230312576A1, “4-(7H-PYRROLO[2,3-D]PYRIMIDIN-4-YL)-3,6-DIHYDROPYRIDINE-1-(2H)-CARBOXAMIDE DERIVATIVES AS LIMK AND/OR ROCK KINASES INHIBITORS FOR USE IN THE TREATMENT OF CANCER” (CENTRE NATIONAL DE LA RECHERCHE SCIENTIFIQUE, priority 2020, published 2023).

Assay [1] has as its system cofilin phosphorylation, HeLa cells. As to the kind of experiment: Cofilin phosphorylation by Western Blot (anti-phospho-Ser3-cofilin) in HeLa cells. The class given is cell-based. The note with it: for inhibition at 25 µM: Homo sapiens.
For assay [2], the target named is LIMK1 (Homo sapiens (Human), UniProt P53667). In words: Lanthascreen Eu binding assay (TR-FRET), inhibition of LIMK1.
In assay [3] the target is LIMK2 (Homo sapiens (Human), UniProt P53671). In words: Lanthascreen Eu binding assay (TR-FRET), inhibition of LIMK2.
Assay [4] has as its target ROCK1 (Homo sapiens (Human), UniProt Q13464). As to the kind of experiment: Z'Lyte assay, ROCK1 inhibition at a single concentration. In kind it is biochemical.
Assay [5] deals with ROCK2 (Homo sapiens (Human), UniProt O75116). As to the kind of experiment: Z'Lyte assay, ROCK2 inhibition at a single concentration. The class given is biochemical.
The mark [6] stands for this setting: HeLa, 2 h, read-out: % inhibition of cofilin phosphorylation in HeLa cells (treatment 2 h, at 25 μM), Table 2, normalized to the control condition DMSO.
[7] abbreviates: read-out: % inhibition Cofilin phosphorylation HeLa cells treated 2 h with 25 uM of inhibitor, HeLa cells, 2 h, 25 uM.
The mark [8] stands for this setting: read-out: % inhibition (ROCK1) 1 uM, 1 uM.
The mark [9] stands for this setting: read-out: % inhibition (ROCK2) 1 uM, 1 uM.
Where [10] appears, read: HeLa, 2 h, read-out: % inhibition Cofilin phosphorylation HeLa cells treated 2 h with 25 uM of inhibitor.
The mark [11] stands for this setting: HeLa, 2 h, read-out: % inhibition of cofilin phosphorylation in HeLa cells (treatment 2 h, at 25 μM).
Where [12] appears, read: read-out: % inhibition (ROCK1) 1 uM.
The mark [13] stands for this setting: read-out: % inhibition (ROCK2) 1 uM.

Each structure is given as a SMILES string. pKi: −log10 of the molar value. Read-outs that look alike come from different tables or passages of the source.

Sequence of ROCK1 (Q13464 whole entry): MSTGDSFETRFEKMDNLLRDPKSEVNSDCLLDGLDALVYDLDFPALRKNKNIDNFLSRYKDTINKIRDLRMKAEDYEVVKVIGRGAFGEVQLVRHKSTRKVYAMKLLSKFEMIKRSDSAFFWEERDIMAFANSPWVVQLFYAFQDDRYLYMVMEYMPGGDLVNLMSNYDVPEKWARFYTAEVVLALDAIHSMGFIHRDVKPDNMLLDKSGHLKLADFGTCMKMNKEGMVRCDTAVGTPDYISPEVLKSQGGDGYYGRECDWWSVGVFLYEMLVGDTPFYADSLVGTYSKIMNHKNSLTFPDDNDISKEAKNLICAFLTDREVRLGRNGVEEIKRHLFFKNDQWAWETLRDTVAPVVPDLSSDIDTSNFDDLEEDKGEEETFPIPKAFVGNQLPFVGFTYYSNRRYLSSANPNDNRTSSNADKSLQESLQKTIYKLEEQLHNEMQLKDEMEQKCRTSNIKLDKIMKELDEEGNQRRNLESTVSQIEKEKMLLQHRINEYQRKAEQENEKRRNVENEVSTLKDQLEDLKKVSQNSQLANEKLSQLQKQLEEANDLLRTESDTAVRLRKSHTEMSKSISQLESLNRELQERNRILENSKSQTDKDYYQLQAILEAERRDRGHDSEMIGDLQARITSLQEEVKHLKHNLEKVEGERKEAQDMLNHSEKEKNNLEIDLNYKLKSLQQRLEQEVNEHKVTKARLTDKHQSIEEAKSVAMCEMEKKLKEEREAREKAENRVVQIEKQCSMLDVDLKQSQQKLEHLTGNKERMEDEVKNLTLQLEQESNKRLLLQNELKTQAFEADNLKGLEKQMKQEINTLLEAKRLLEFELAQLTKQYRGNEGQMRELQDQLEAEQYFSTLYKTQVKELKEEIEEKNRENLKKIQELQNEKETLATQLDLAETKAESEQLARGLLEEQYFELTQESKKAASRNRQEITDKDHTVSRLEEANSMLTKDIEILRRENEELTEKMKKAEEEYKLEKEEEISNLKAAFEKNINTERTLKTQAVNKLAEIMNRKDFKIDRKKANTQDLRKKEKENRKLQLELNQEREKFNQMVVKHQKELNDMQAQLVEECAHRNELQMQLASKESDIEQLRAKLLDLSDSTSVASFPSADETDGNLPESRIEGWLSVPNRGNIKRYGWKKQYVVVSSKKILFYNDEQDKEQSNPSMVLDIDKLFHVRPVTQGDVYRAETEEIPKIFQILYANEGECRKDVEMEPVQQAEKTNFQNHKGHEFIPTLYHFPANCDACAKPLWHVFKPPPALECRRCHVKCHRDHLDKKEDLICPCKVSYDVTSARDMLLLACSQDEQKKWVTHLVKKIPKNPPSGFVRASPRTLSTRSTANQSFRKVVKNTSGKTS
Sequence of ROCK2 (O75116 whole entry): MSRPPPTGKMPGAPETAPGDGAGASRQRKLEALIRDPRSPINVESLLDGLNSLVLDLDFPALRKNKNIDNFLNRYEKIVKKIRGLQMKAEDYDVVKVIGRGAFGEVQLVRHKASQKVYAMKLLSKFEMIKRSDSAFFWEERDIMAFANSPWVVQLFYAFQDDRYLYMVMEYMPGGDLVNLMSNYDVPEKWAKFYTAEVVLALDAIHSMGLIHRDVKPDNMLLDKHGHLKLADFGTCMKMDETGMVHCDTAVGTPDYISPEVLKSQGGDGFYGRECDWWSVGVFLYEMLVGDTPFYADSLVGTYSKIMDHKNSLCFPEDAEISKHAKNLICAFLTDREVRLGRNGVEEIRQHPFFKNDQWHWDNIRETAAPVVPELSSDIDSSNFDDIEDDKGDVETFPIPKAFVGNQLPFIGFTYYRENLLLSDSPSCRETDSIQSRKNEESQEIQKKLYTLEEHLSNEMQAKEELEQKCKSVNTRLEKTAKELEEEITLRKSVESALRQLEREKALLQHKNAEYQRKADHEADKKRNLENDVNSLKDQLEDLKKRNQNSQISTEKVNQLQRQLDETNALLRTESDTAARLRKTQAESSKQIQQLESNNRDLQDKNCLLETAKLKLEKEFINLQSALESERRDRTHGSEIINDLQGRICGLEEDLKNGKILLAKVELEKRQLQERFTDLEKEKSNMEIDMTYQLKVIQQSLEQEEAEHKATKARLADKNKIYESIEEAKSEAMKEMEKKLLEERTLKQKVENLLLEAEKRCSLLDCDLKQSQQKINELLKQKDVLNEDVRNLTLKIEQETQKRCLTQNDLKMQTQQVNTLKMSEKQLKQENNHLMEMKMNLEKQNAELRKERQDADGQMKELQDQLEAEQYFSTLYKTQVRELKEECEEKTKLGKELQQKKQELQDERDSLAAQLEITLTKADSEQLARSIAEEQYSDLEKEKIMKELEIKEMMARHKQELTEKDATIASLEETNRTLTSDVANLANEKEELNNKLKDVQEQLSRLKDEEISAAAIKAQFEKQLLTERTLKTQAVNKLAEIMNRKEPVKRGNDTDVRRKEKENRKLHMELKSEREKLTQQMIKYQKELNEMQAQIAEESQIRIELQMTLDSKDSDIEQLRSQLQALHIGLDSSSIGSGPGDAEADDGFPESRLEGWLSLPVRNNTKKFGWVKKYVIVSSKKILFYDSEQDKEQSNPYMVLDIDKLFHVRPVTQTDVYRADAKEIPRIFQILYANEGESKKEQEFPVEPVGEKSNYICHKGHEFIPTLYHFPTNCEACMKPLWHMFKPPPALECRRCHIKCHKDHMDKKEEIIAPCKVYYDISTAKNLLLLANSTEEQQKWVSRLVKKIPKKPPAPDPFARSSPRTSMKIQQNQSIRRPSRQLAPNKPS
Sequence of LIMK2 (P53671 whole entry): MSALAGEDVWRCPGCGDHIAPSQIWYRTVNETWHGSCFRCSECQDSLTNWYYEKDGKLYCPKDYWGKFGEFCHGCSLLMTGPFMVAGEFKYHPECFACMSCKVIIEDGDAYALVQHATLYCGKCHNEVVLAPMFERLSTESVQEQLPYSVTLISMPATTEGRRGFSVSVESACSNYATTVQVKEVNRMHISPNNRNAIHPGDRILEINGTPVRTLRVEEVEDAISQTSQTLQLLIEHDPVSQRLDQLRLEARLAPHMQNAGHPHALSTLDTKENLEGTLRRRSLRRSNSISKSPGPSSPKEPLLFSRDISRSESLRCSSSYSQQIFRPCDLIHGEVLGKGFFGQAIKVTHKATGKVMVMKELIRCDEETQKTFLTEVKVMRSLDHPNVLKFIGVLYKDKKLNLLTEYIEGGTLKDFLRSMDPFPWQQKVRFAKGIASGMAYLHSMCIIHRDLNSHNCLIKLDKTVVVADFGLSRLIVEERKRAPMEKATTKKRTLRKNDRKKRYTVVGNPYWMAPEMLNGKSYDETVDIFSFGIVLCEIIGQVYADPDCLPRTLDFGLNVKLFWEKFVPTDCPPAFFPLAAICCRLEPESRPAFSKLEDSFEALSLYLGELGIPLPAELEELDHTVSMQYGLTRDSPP
Sequence of LIMK1 (P53667 whole entry): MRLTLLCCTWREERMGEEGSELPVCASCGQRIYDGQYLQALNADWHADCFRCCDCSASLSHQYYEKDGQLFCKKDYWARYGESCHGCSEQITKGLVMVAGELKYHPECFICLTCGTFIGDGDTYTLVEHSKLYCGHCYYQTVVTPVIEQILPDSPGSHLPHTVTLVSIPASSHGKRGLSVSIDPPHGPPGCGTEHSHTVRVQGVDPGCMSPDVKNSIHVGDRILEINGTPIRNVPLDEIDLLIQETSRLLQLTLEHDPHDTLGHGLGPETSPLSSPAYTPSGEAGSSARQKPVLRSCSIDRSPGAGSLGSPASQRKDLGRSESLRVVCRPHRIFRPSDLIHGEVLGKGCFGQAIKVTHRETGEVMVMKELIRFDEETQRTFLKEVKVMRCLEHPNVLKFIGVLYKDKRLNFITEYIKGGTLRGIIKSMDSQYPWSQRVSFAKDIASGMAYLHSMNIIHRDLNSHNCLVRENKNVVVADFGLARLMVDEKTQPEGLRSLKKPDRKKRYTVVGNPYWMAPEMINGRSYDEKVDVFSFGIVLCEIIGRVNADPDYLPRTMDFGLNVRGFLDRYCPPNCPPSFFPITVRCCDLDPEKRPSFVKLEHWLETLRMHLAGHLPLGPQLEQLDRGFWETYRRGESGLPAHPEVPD

On to `CN(C)C(=O)c1cccc(NC(=O)N2CC=C(c3ncnc4[nH]c5c(c34)CCC5)CC2)c1` [Compound 134, N-[3-(Dimethylcarbamoyl)phenyl]-4-(7,9,11-triazatricyclo [6.4.0.02,6]dodeca-1(8),2(6),9,11-tetraen-12-yl)-3,6-dihydropyridine-1(2H)-carboxamide], for which the inhibition at 25 µM in assay [1] (setting [6]) and in assay [1] (setting [7]) was 77.1% throughout. Besides, the pKi is 7.44 in assay [2] (Lanthascreen Eu binding assay) and 7.48 in assay [3] (Lanthascreen Eu binding assay). The inhibition at 1 µM in assay [4] (setting [8]) is -20%; in assay [5] (setting [9]), -5%.
For `CN(C)C(=O)Nc1cccc(NC(=O)N2CC=C(c3ncnc4[nH]c5c(c34)CCC5)CC2)c1` [Compound 131, N-[3-(Dimethylcarbamoylamino)phenyl]-4-(7,9,11-triaza-tricyclo[6.4.0.02,6]dodeca-1(8),2(6),9,11-tetraen-12-yl)-3,6-dihydropyridine-1(2H)-carboxamide], the inhibition at 25 µM in assay [1] (setting [6]) and in assay [1] (setting [7]) was 82.9% throughout. Further, the pKi in assay [2] (Lanthascreen Eu binding assay) is 7.33; in assay [3] (Lanthascreen Eu binding assay), 8.06. The inhibition at 1 µM in assay [4] (setting [8]) came to 14%; in assay [5] (setting [9]) it was 1%.
For the molecule `Cc1c[nH]c2ncnc(C3=CC(C)N(C(=O)Nc4cccc(Br)c4)CC3)c12` (stereo not drawn) [Compound 49a-49b, N-(3-bromophenyl)-6-methyl-4-(5-methyl-7H-pyrrolo[2,3-d]pyrimidin-4-yl)-3,6-dihydropyridine-1(2H)-carboxamide (49a) and N-(3-bromophenyl)-2-methyl-4-(5-methyl-7H-pyrrolo[2,3-d]pyrimidin-4-yl)-3,6-dihydropyridine-1(2H)-carboxamide (49b)], in assay [1], the “% inhibition Cofilin phosphorylation HeLa cells treated 2 h with 25 uM of inhibitor” value is on record as 88.1% and the “% inhibition of cofilin phosphorylation in HeLa cells (treatment 2 h, at 25 μM)” value is 88.1%. Also, the “% inhibition (ROCK1) 1 uM” value in assay [4] stood at 96%. For the same molecule, the “% inhibition (ROCK2) 1 uM” value in assay [5] stood at 98%.
For the molecule `O=C(Nc1cccc(Br)c1)N1CC=C(c2ncnc3[nH]c4c(c23)CCC4)CC1` [Compound 112, N-(3-Bromophenyl)-4-(5,6,7,8-tetrahydrocyclopenta[4,5]pyrrolo[2,3-d]pyrimidin-4-yl)-3,6-dihydropyridine-1(2H)-carboxamide], the inhibition at 25 µM in assay [1] (setting [10]) and in assay [1] (setting [11]) was 84.5% in each case. Further, the pKi is 8.15 in assay [2] and 7.62 in assay [3]. In addition, the inhibition at 1 µM in assay [4] (setting [12]) is 8%; in assay [5] (setting [13]) it was 13%.
Turning to `CCc1cccc(NC(=O)N2CC=C(c3ncnc4[nH]c5c(c34)CCC5)CC2)c1` [Compound 129, N-(3-Ethylphenyl)-4-(7,9,11-triazatricyclo[6.4.0.02,6]dodeca-1(8),2(6),9,11-tetraen-12-yl)-3,6-dihydropyridine-1(2H)-carboxamide], the inhibition at 25 µM in assay [1] (setting [6]) and in assay [1] (setting [7]) was 84.5% in each case. For the same molecule, the figures for the pKi in assay [2] (Lanthascreen Eu binding assay) and in assay [3] (Lanthascreen Eu binding assay) were 7.78 and 7.26, respectively. Also, the results for the inhibition at 1 µM in assay [4] (setting [8]) and in assay [5] (setting [9]) were 18% and 11%, respectively.
Regarding `COc1cccc(NC(=O)N2CC=C(c3ncnc4[nH]c5c(c34)CCC5)CC2)c1` [Compound 121, N-(3-Methoxyphenyl)-4-(5,6,7,8-tetrahydrocyclopenta[4,5]pyrrolo[2,3-d]pyrimidin-4-yl)-3,6-dihydropyridine-1(2H)-carboxamide], in assay [1] (setting [7]), the inhibition at 25 µM stood at 64.5%. The negative-log Ki (pKi) in assay [2] (Lanthascreen Eu binding assay) was 8.21; in assay [3] (Lanthascreen Eu binding assay) it was 7.60. Also, the inhibition at 1 µM in assay [4] (setting [8]) was 3%; in assay [5] (setting [9]), 18%.
For the molecule `O=C(Nc1cccc(N2CCOCC2)c1)N1CC=C(c2ncnc3[nH]c4c(c23)CCC4)CC1` [Compound 130, N-(3-morpholinophenyl)-4-(7,9,11-triazatricyclo[6.4.0.02,6]dodeca-1(8),2(6),9,11-tetraen-12-yl)-3,6-dihydropyridine-1(2H)-carboxamide], the inhibition at 25 µM in assay [1] (setting [6]) and in assay [1] (setting [7]) was 79.2% throughout. Also, the pKi was 7.57 in assay [2] (Lanthascreen Eu binding assay) and 7.06 in assay [3] (Lanthascreen Eu binding assay). The figures for the inhibition at 1 µM in assay [4] (setting [8]) and in assay [5] (setting [9]) were 26% and 0%, respectively.
For `O=C(Nc1cccc(Oc2ccccc2)c1)N1CC=C(c2ncnc3[nH]cc(C4CC4)c23)CC1` [Compound 79, 4-(5-Cyclopropyl-7H-pyrrolo[2,3-d]pyrimidin-4-yl)-N-(3-phenoxyphenyl)-3,6-dihydropyridine-1(2H)-carboxamide], the inhibition at 25 µM in assay [1] (setting [6]) and in assay [1] (setting [7]) was 83.1% throughout. In addition, the pKi in assay [2] (Lanthascreen Eu binding assay) is 7.37; in assay [3] (Lanthascreen Eu binding assay), 7.96. Moreover, the values for the inhibition at 1 µM in assay [4] (setting [8]) and in assay [5] (setting [9]) were 6% and 8%, respectively.
In the case of `Cc1c[nH]c2ncnc(C3=CCN(C(=O)Nc4ccc5ccccc5c4)CC3)c12` [Compound 13, 4-(5-Methyl-7H-pyrrolo[2,3-d]pyrimidin-4-yl)-N-(naphthalen-2-yl)-3,6-dihydropyridine-1(2H)-carboxamide], the inhibition at 25 µM in assay [1] (setting [10]) and in assay [1] (setting [11]) was 84.2% in each case. The inhibition at 1 µM in assay [4] (setting [8]) turned out to be 73%; in assay [5] (setting [9]), 56%.
With `O=C(Nc1cccc(Br)c1)N1CC=C(c2ncnc3[nH]c4c(c23)CCCCC4)CC1` [Compound 118, N-(3-Bromophenyl)-4-(5,6,7,8,9,10-hexahydrocyclohepta[4,5]pyrrolo[2,3-d]pyrimidin-4-yl)-3,6-dihydropyridine-1(2H)-carboxamide], the inhibition at 25 µM in assay [1] (setting [10]) and in assay [1] (setting [11]) was 84.2% each time. In addition, the pKi in assay [2] was 7.83; in assay [3], 7.39. Also, the figures for the inhibition at 1 µM in assay [4] (setting [12]) and in assay [5] (setting [13]) were 10% and -4%, respectively.
Turning to `O=C(Nc1cccc(F)c1)N1CC=C(c2ncnc3[nH]c4c(c23)CCCC4)CC1` [Compound 113, N-(3-Fluorophenyl)-4-(6,7,8,9-tetrahydro-5H-pyrimido[4,5-b]indol-4-yl)-3,6-dihydropyridine-1(2H)-carboxamide], the inhibition at 25 µM in assay [1] (setting [7]) came to 87%. For the same molecule, the pKi in assay [2] (Lanthascreen Eu binding assay) was 8.15; in assay [3] (Lanthascreen Eu binding assay), 7.59. The inhibition at 1 µM in assay [4] (setting [8]) turned out to be 7%; in assay [5] (setting [9]) it was 4%.
Regarding `O=C(Nc1cccc(-n2cccc2)c1)N1CC=C(c2ncnc3[nH]cc(C4CC4)c23)CC1` [Compound 81, 4-(5-Cyclopropyl-7H-pyrrolo[2,3-d]pyrimidin-4-yl)-N-(3-pyrrol-1-ylphenyl)-3,6-dihydropyridine-1(2H)-carboxamide], the inhibition at 25 µM in assay [1] (setting [10]) and in assay [1] (setting [11]) was 90% in each case. The inhibition at 1 µM in assay [4] (setting [8]) came out at 36%; in assay [5] (setting [9]) it was 35%.
With `O=C(Nc1cccc(C(F)(F)F)c1)N1CC=C(c2ncnc3[nH]c4c(c23)CCC4)CC1` [Compound 128, 4-(7,9,11-Triazatricyclo[6.4.0.02,6]dodeca-1(8),2(6),9,11-tetraen-12-yl)-N[3(trifluoromethyl)phenyl]-3,6-dihydropyridine-1(2H)-carboxamide], the “% inhibition Cofilin phosphorylation HeLa cells treated 2 h with 25 uM of inhibitor” value in assay [1] (HeLa cells, 2 h, 25 uM) is given as 83.9%. Besides, in assay [1] (Table 2, normalized to the control condition DMSO), the “% inhibition of cofilin phosphorylation in HeLa cells (treatment 2 h, at 25 μM)” value worked out at 83.9%. The pKi in assay [2] (Lanthascreen Eu binding assay) was 7.57; in assay [3] (Lanthascreen Eu binding assay), 7.17. Further, the “% inhibition (ROCK2) 1 uM” value in assay [5] (1 uM) is −14%.
